Data published in US6019997A, “Hydroalcoholic compositions for transdermal penetration of pharmaceutical agents” (priority 1997, dated 2000).

Key:
Type in all cases: physicochemical
[1] = Melt temperature (Tm); settings: result in words
Experimental: The melt temperature was measured by placing approximately 15 grams sample in a 25 cc sealed glass vial and placing the vial in a water bath. The temperature of the bath was increased periodically in discrete increments and the contents checked after approximately 1 hour at a given temperature. The melt temperature was taken as the temperature at which the mixture became very low in viscosity.

[2] = Emulsion stability; settings: concentrations below about 1% by weight
[3] = Viscosity (Brookfield LVDV-I+ viscometer, 23° C.); settings: result in words
Experimental: In the following Examples (except where indicated) viscosity was measured at 23° C. at ambient pressure using a Brookfield LVDV-I^+ viscometer equipped with a model D Brookfield heliopath and T spindles B-F. The spindle and speed was chosen for each particular sample such that the viscometer was operating in the middle of its range. All samples were allowed to equilibrate at 23° C. for 24 hours prior to measurement. Preferably the viscosity is taken at the lowest speed possible while staying within 20-80% of the viscometer range and more preferably between 30-70% of the range. In all cases the sample size and container geometry was chosen to ensure that there were no wall effects. By "wall effects" it is meant the viscosity value is not affected by the container and is essentially equivalent to the viscosity taken in an infinitely large container. For this reason lower viscosity samples required a larger sample size to accommodate the larger spindles. The following table outlines preferred spindles for various sample viscosities.
The viscosity of each sample was taken as the highest relatively stable reading achieved on the first path the spindle traversed using the heliopath adapter.

Compound | effect of emollient on melt temperature of the composition [1] | phase separation when heated above the melt temperature [2] | effect of emollient on viscoelasticity of certain emulsifier systems [3]
CCCCCCCCCCCCOCCOCCOCCOCCO [laureth-4] | tends to decrease the melt temperature of the composition | does not phase out | 
trioctyldodecyl citrate | significantly decrease the melt temperature of some systems |  | 
CCCCCCCCCCCCCCCC [hexadecane] |  |  | can increase the viscoelasticity of certain emulsifier systems
